Assay results: US7482344B2, “Tricyclic steroid hormone nuclear receptor modulators” (Eli Lilly and Company, priority 2003, dated 2009)

Target: T1, MR (Homo sapiens, UniProt P08235)
T1 sequence (P08235 1-984): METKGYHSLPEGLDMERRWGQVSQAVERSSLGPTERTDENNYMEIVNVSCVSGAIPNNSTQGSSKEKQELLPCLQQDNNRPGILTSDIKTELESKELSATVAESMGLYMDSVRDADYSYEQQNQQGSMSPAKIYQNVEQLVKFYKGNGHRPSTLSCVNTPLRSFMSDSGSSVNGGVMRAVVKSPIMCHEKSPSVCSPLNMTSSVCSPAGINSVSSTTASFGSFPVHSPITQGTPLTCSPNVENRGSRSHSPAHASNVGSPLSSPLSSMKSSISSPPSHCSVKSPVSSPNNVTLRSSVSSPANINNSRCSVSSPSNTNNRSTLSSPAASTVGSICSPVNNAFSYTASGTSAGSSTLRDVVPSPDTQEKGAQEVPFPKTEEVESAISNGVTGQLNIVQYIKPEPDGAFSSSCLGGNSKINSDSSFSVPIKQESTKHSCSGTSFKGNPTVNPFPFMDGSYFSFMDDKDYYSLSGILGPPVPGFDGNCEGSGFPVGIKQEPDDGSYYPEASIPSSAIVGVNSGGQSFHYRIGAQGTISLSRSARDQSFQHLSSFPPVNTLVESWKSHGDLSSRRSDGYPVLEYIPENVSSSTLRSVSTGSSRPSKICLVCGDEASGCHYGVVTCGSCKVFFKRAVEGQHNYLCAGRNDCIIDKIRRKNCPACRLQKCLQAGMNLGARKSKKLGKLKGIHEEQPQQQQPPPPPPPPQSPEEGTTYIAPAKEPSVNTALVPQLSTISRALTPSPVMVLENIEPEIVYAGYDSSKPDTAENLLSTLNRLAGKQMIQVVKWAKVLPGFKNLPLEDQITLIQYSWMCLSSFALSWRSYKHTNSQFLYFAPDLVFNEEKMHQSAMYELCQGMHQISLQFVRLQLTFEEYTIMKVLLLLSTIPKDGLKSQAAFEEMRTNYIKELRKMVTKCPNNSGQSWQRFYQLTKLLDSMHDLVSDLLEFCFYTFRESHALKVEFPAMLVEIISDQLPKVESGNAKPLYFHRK
Assay: Mineralocorticoid Receptor Binding Assay (Method 1), [3H]-aldosterone competition
Parameters: The full length human MR gene is cloned from a human kidney or human brain cDNA library; made in house; host or cells: SF9 insect cells (pAcHLT baculovirus transfer vector)
Settings: human MR expressed in Sf9 cells, 0.5 nM [3H]-aldosterone
Experimental: Mineralocorticoid Receptor Binding Assay (Method 1):
The full length human MR gene is cloned from a human kidney or human brain cDNA library. Briefly, using synthetic oligonucleotide primers (Eli Lilly and Company, Indianapolis) directed to nucleotides 20-54 and 3700-3666 of the human MR, polymerase chain reaction (PCR) is performed under standard conditions using a human cDNA library. The PCR reaction is performed in a final volume of 50 μl containing about 1μl of a 50× stock solution of polymerase; about 1 μl of a 50× stock solution of dNTP; about 5μl of an appropriate PCR buffer; about 1 μl of each primer; about 5 μl of a H. kidney or H. brain cDNA library; and about 36 μl of water. The reaction is allowed to denature for about 30 seconds at 95 degrees Celsius, anneal for about 30 seconds at 55 degrees Celsius, and extend for about 5 minutes at 72 degrees Celsius, the sequence being repeated for a total of about 35 cycles. The desired PCR product (3.68 Kb) is confirmed by gel electrophoresis and subsequently cut from the gel and stored at about −20 degrees Celsius until extraction. To extract the cDNA product from the agarose gel, the QIAEX II Gel Extraction protocol (QIAGEN, Inc.) is employed according to the manufacturer's instructions. Following extraction, the MR cDNA is cloned into an appropriate cloning vector (Zero Blunt TOPO PCR Cloning Kit (Invitrogen, Inc.) and a pAcHLT-baculovirus transfer vector (B.D./Pharminogen), then expressed in SF9 insect cells, essentially according to manufacturer's instructions. Sf9 cells are grown at a scale where gram quantity cell pellets are obtained for subsequent use in the MR binding assay. Harvested cell pellets are lysed by repeated freeze-thaw cycles (about 4) in a suitable lysis buffer then centrifuged at about 1×10^3G (with the supernatant being saved for future assays).
MR binding assays are performed in a final total volume of about 250 μl containing about 20-25 μg of protein and 0.5 nM of [^3H]-aldosterone plus varying concentrations of test compound or vehicle. The assay binding buffer consists of 30 mM sodium molybdate, 30 mM of TRIS-HCl, 5 mM sodium phosphate, 5 mM sodium pyrophosphate, and about 10% glycerol, pH=7.5.
Briefly, assays are prepared at RT in 96-well Falcon 3072 plates, each well containing 210 μof binding buffer, 10 μl of […], 10 μl of test compound/vehicle, and 20 μl of the resuspended receptor protein extract. Incubations are carried out at 4 degrees Celsius with shaking for about 16 hours. 200 μl aliquots of each incubation are filtered onto Millipore HA 0.45 micron 96-well filter plates, pre-moistened with cold 30 mM TRIS-HCl. The filter plates are suctioned dry with vacuum and immediately washed 3× with cold 30 mM TRIS-HCl. The plates are then punched out and the amount of receptor-ligand complex is determined by liquid scintillation counting using 4 ml of Ready Protein Plus™ liquid scintillation cocktail.

**Q.** For `CC(=C1c2ccccc2Sc2ccccc21)c1cccc(N)c1` [Example 6], which Ki is on record?
**A.** < 500 nM

**Q.** Which Ki does the source give for `CN1CCN(CCn2c(=O)[nH]c3cc(C=C4c5ccccc5Sc5ccccc54)ccc32)CC1` [Example 14] here?
**A.** < 500 nM

**Q.** How did the Ki turn out when `O=c1[nH]c2ccc(C=C3c4ccc(F)cc4Sc4cc(F)ccc43)cc2[nH]1` [Example 5, 5-(3,6-Difluoro-thioxanthen-9-ylidenemethyl)-1,3-dihydro-benzoimidazol-2-one] was run?
**A.** < 500 nM

**Q.** How did the Ki turn out when `O=c1[nH]c2cc(C=C3c4ccccc4Sc4ccccc43)ccc2s1` [Example 12] was run?
**A.** < 500 nM

**Q.** `CS(=O)(=O)Nc1cccc(C=C2c3ccccc3Sc3ccccc32)c1` [Example 8] was tested. Which Ki did it give?
**A.** < 500 nM

**Q.** `Oc1ccccc1C=C1c2ccccc2Sc2ccccc21` [Example 15] was tested. Which Ki did it give?
**A.** < 500 nM

**Q.** For `O=c1[nH]c2ccc(C=C3c4ccccc4Sc4ccccc43)cc2[nH]1` [Example 10], which Ki is on record?
**A.** < 500 nM

**Q.** How did the Ki turn out when `O=c1[nH]c2cc(C=C3c4ccccc4Sc4ccccc43)ccc2n1CCN1CCOCC1` [Example 13] was run?
**A.** < 500 nM

**Q.** How did the Ki turn out when `O=c1[nH]c2cc(C=C3c4ccccc4Sc4ccccc43)ccc2o1` [Example 11] was run?
**A.** < 500 nM

**Q.** With `Nc1cccc(C=C2c3ccccc3Sc3ccccc32)c1` [Example 9] as the compound, how does the Ki read?
**A.** < 500 nM

**Q.** Which Ki does the source give for `CC(=C1c2ccccc2Sc2ccccc21)c1cccc(NS(C)(=O)=O)c1` [Example 4, 9-[1-(3-methylsulfonoylaminophenyl)ethylene] thioxanthine] here?
**A.** < 500 nM
